Measured values as given in US12419858B2, “Salt of terphenyl compound” (Taiho Pharmaceutical Co., Ltd., priority 2019, dated 2025).

Tests used:
[1] = Solid stability test (accelerated test); details: for Purity, variation (Y) − (X) / Total mass of analogous substance, variation (Y) − (X): 4 weeks at 60° C. sealed versus before storage; for solid stability (in words): 4 weeks at 60° C.; for solid stability (in words) / Purity, 4 weeks after storage at 60° C. on sealed condition (Y) / Total mass of analogous substance, 4 weeks after storage at 60° C. on sealed condition (Y): sealed; for Purity, 4 weeks after storage at 60° C. on sealed condition (Y) / Total mass of analogous substance, 4 weeks after storage at 60° C. on sealed condition (Y) / Purity, before storage (X) / Total mass of analogous substance, before storage (X): HPLC; for Purity, 4 weeks after storage at 60° C. on sealed condition (Y) / Total mass of analogous substance, 4 weeks after storage at 60° C. on sealed condition (Y): 4 weeks at 60° C./ambient humidity
Protocol: Mass of analogous substance in the sample solution was measured by HPLC analysis.

[2] = Pharmacokinetic (PK) studies in rats
Protocol: Each drug was administered to the animal at a dose of 32 mg/5 mL/kg.

[3] = Moisture absorption/desorption test; details: 25° C.; for hygroscopicity / moisture absorption-desorption behaviour (in words): 5% RH to 95% RH and back; for weight change at maximum (moisture absorption/desorption): relative humidity from 5 to 95%
Protocol: Moisture absorption/desorption test was carried out on the following test conditions. A dedicated quartz holder was filled with about 10 mg of sample, and a weight of the sample at each humidity was measured and recorded in a continuous manner under the following conditions.

| SMILES | Purity, variation (Y) − (X) [1] | Total mass of analogous substance, variation (Y) − (X) [1] | solid stability (in words) [1] | solid stability (in words) ([1]; listed as benzoate) | Purity, 4 weeks after storage at 60° C. on sealed condition (Y) [1] | Total mass of analogous substance, 4 weeks after storage at 60° C. on sealed condition (Y) [1] | Purity, before storage (X) [1] | Total mass of analogous substance, before storage (X) [1] | Cmax ([2]; rats, dose of 32 mg/5 mL/kg) | Tmax ([2]; rats, dose of 32 mg/5 mL/kg) | hygroscopicity / moisture absorption-desorption behaviour (in words) [3] | weight change at maximum (moisture absorption/desorption) [3] | Cmax ([2]; rat, in vivo, 32 mg/kg) | Tmax ([2]; rat, in vivo, 32 mg/kg) | hygroscopicity / moisture absorption-desorption behaviour (in words) ([3]; listed as free form) | AUC ([2]; rats, dose of 32 mg/5 mL/kg) |
| --- | --- | --- | --- | --- | --- | --- | --- | --- | --- | --- | --- | --- | --- | --- | --- | --- |
| CC(C)(O)Cc1ccc(-c2ccc(C(=O)N3CC[C@H](N)C3)cc2-c2ccc(C#N)c(F)c2)c(F)c1.O=C(O)c1ccccc1 [benzoic acid salt of Compound A, benzoic acid salt of 4-[5-[(3S)-3-aminopyrrolidine-1-carbonyl]-2-[2-fluoro-4-(2-hydroxy-2-methyl-propyl)phenyl]phenyl]-2-fluoro-benzonitrile] | +0.13% | −0.13% | almost no analogous substance was generated | stable | 98.06% | 1.94% | 97.93% | 2.07% | 2680 nM | 2.7 h | less adsorptive and/or disorptive of moisture | +0.7 % w/w |  |  |  |  |
| CC(C)(O)Cc1ccc(-c2ccc(C(=O)N3CC[C@H](N)C3)cc2-c2ccc(C#N)c(F)c2)c(F)c1 [free form of Compound A, 4-[5-[(3S)-3-aminopyrrolidine-1-carbonyl]-2-[2-fluoro-4-(2-hydroxy-2-methyl-propyl)phenyl]phenyl]-2-fluoro-benzonitrile] | −0.37% | +0.37% | poor solid stability |  | 98.15% | 1.85% | 98.52% | 1.48% |  |  | had the characteristic of channel hydrate | about +5.6 % w/w | 2560 nM | 4 h | characteristic of hygroscopicity |  |
| C/C=C/C=C/C(=O)O.CC(C)(O)Cc1ccc(-c2ccc(C(=O)N3CC[C@H](N)C3)cc2-c2ccc(C#N)c(F)c2)c(F)c1 [sorbic acid salt of Compound A, sorbic acid salt of 4-[5-[(3S)-3-aminopyrrolidine-1-carbonyl]-2-[2-fluoro-4-(2-hydroxy-2-methyl-propyl)phenyl]phenyl]-2-fluoro-benzonitrile] | −0.64% | +0.64% | stable |  | 97.99% | 2.01% | 98.63% | 1.37% | 2030 nM | 2.3 h | less adsorptive and/or disorptive of moisture | +1.9 % w/w |  |  |  | 11.64 µM·h |
